Patent US20260144769A1, “4-PHENYLBUTYRATE RESTORED GABA UPTAKE AND REDUCED SEIZURES IN SLC6A1 VARIANT-MEDIATED DISORDERS” (Vanderbilt University, priority 2022, published 2026)

Columns and labels:
[1] = tested on: GAT-1 in human iPSC-derived neurons; assay: 3H GABA uptake, human iPSC-derived neurons; type: cell-based; settings: PBA treated human iPSC-derived neurons; PBA 2 mM, 24 hrs
Protocol: (§1) Live images of human neural progenitor cells (NPCs), astrocytes and GABAergic inhibitory neurons differentiated from the human induced pluripotent stem cells (iPSCs) on the day of experiment. […] The DMSO treated corrected or patient cells was taken as 1. […] GABA flux was measured after 30 min transport at room temperature. The influx of GABA, expressed in pmol/μg protein/min, was averaged from duplicates for each condition and for each transfection. The average counting was DMSO treated condition taken as 1. In FIG. 5B, FIG. 5D and FIG. 5F, 966 stands for CI-966 (50 μM) and 711 stands for NNC-711 (35 μM) that was applied 30 min to the astrocytes transfected with the wildtype GAT-1^YFP before preincubation and removed during preincubation. In FIGS. 5B and D, ***p<0.001 vs. corrected DMSO treated. § § <0.01, § § § p<0.001 vs. patient DMSO treated. […] In FIGS. 5B-E, n=4-8 batches of cells. In FIG. 5F, n=4-5 different transfections). Unpaired t test was used for FIG. 5C and FIG. 5E. […] Values were expressed as mean±S.E.M.). […]
(§2) Briefly, cells were cultured in […] dishes for 3 days before the GABA uptake experiment in DMEM with 10% fetal bovine serum and 1% penicillin/streptomycin. […] Glacial acetic acid was added, and lysates were then determined on a liquid scintillator with QuantaSmart. […]

GAT-1 L460R = GAT-1 L460R (Rattus norvegicus, UniProt P23978, L460R); assay: 3H GABA uptake, corrected iPSC astrocytes transfected with GAT-1^YFP cDNA; type: cell-based; parameters: The coding region of rGAT-1 was inserted into pEYFP-C1 (Clontech, Palo Alto, CA); expressed in transfected cells; host or cells: human astrocytes differentiated from CRISPR-corrected patient iPSCs; settings: 2 mM PBA, 24 hrs
Protocol: as §1, §2

For O=C(O)CCCc1ccccc1 [PBA, 4-phenylbutyric acid], the “increase of GABA uptake” value [1] was ~20% and the “GABA uptake normalized to its DMSO treated” value (GAT-1 L460R) was 1.18±0.045.
